Where two headings read alike, the source gives them in different places.
Columns and labels:
[1] = test system: luminal markers (FOXA1 and GATA3) and basal markers (CDH3 and KRT6A); conditions: J82 tumor xenografts
Protocol: (§1) Subsequently, the RNA samples were dissolved in RNase-free water, and their concentration and purity were measured with a spectrophotometer. The TAE/formamide electrophoresis method (Masek et al., 2005) was used for RNA quality analysis. For quantitative RT-PCR of mRNA transcripts, first-strand cDNA was synthesized using a high-capacity cDNA reverse transcriptase kit (Applied Biosystems) containing oligo dT. Quantitative RT-PCR was performed using SYBR Green Supermix (Applied Biosystems) and a one-step cycler (Applied Biosystems), and gene expression was normalized to the housekeeping gene HPRT1.
(§2) To investigate the functional role of SHH expression in the growth of human bladder tumors and the effects of the Hh/BMP signaling feedback between tumors and the stroma on the subtype conversion of human muscle-invasive urothelial carcinoma, xenografts in which J82 cells were orthotopically injected into immunocompromised mice (NOD/SCID/IL2Rgnull) (14 mice) were treated with 5′-azacitidine for one month, and orthotopic xenografts in the mice treated with the vehicle control (7 mice) or 5′-azacitidine (7 mice) were subjected to H&E staining.

[2] = test system: CpG shore upstream of the CpG island of the Shh promoter region; conditions: tumor organoids, 1 μM for four consecutive days; vehicle control 73%
Protocol: The DNA methylation status of mouse and human Shh was confirmed using genomic DNA bisulfite sequencing. For bisulfite conversion, 1 μg of genomic DNA was converted using a MethylEdge Bisulfite Conversion System (Promega) according to the manufacturer's instructions. The genomic sequences of the regulatory regions of mouse Shh and human SHH were obtained from the NCBI nucleotide database (Mus musculus: NC_000071.6, Homo sapiens: NG_007504.2), and the CpG island (island) and CpG shores in the regulatory region were identified using Methprimer 2.0 (Li and Dahiya, 2002) (RRID: SCR_010269). […]
(§6) The sequencing data was assembled using SnapGene software (https://snapgene.com/, RRID: SCR_015053) and the MUSCLE: multiple sequence alignment tool (haps://www.ebi.ac.uk/Tools/msa/muscle/ RRID: SCR_011812). […] The methylated CpG sites were counted and distinguished from unmethylated CpG sites.
BBN-induced bladder tumors were minced, and then incubated in DMEM (Gibco) containing collagenase I and II (20 mg/ml each) and thermolysin (250 KU/ml) at 37° C. for 2 hours, followed by 5-minute trituration every 30 minutes. […] After lysis of red blood cells in ACK lysis buffer (Gibco), the cells were washed with DMEM containing 10% fetal bovine serum (Millipore) and counted using a hemocytometer (Sigma). […]

[3] = test system: Shh gene; conditions: tumor organoids, 1 μM for four consecutive days
Protocol: as §1

[4] = test system: luminal and basal signatures; conditions: tumor allografts, RNA-Seq
Protocol: Total RNA was extracted with a TRIzol reagent (Thermo Fisher) according to the manufacturer's instructions. RNA-seq libraries were constructed using the TruSeq sample prep kit V2 (Illumina). […] The RNA-seq libraries were sequenced using a NextSeq platform with 75-bp single-end reads.
Differentially expressed genes were analyzed using Cufflinks tools (Trapnell et al., 2012). From all annotated genes, genes were removed when the rpkm average of all sequenced samples is less than 1.0, such that the depth to which the genes are assigned may be low. GSEA was performed according to the instructions (RRID: SCR_003199). To generate a customized gene set for a luminal marker and a basal marker, a representative gene for each signature was obtained from a previous study (Damrauer et al., 2014). The RNA-seq data set used herein was deposited in NCBI GEO (Accession No.: GSE129441).
In addition, using standard luminal and basal signatures obtained from previous research, GSEA of tumor allografts treated with the vehicle control and 5′-azacitidine from RNA-Seq data was performed.

[5] = test system: CpG shore upstream of the CpG island of the Shh promoter region; conditions: 1 mg per kg every other day for 2 weeks; vehicle control 62%
Protocol: (§7) The mice were administered 8 mg of tamoxifen (TM; Sigma) per 30 g of body weight by oral gavage for three consecutive days. Male mice aged 8 to 10 weeks were used. […] In each experiment, the mice were randomly selected for a drug/TM or control-treated group. The experiments involving mice were performed under isoflurane anesthesia.
The DNA methylation status of mouse and human Shh was confirmed using genomic DNA bisulfite sequencing. For bisulfite conversion, 1 μg of genomic DNA was converted using a MethylEdge Bisulfite Conversion System (Promega) according to the manufacturer's instructions. The genomic sequences of the regulatory regions of mouse Shh and human SHH were obtained from the NCBI nucleotide database (Mus musculus: NC_000071.6, Homo sapiens: NG_007504.2), and the CpG island (island) and CpG shores in the regulatory region were identified using Methprimer 2.0 (Li and Dahiya, 2002) (RRID: SCR_010269). The 2kb regions upstream and downstream of the CpG island were referred to as a “CpG upshore” and a “CpG downshore,” respectively. […]
as §6

[6] = test system: Ck18; conditions: tumor allografts, nude mice
From the text: (§3) To evaluate the effect of DNA methyltransferase inhibition on the growth of bladder cancer under immunocompromised conditions, nude mice (14 mice) orthotopically injected with BBN-induced bladder tumor cells were divided into a vehicle control (7 mice) and a 5′-azacitidine-treated group (7 mice), and then treated with a vehicle and 5′-azacitidine for 2 weeks, respectively. In addition, allograft sections of the vehicle control or 5′-azacitidine-treated mice were subjected to H&E staining, and the experimental scheme is shown in FIG. 4A.

[7] = test system: BBN-induced bladder tumor cells; conditions: nude mice, treated 2 weeks
From the text: as §3

[8] = test system: BBN-induced bladder tumor cells
Protocol: as §7
Bladder tumors were dissociated into single cells as described above. The cells were resuspended in 80 ml DMEM containing 50% Matrigel (BD Bioscience), and then submucosally injected into the anterior aspect of the bladder dome using a 29-gauge insulin syringe.
(§8) Tumor specimens were fixed in 10% neutral-buffered formalin for 12 hours, embedded in paraffin, and then sectioned into 4-um thick sections using a microtome. The slides were stained with hematoxylin and counter-stained with eosin for histological analysis. For immunostaining, tumor samples were embedded in an OCT compound (Tissue-Tek) and sectioned into 10-um-thick sections with a cryostat (Leica).
To evaluate the effect of the inhibition of DNA methyltransferase (DNMT) on the growth of bladder cancer, recently established transplantation models were used, and these models allow the proliferation of tumor cells transplanted in a microenvironment in vivo by injecting bladder cancer cells into the wall of the bladder dome.

[9] = test system: Shh gene; conditions: orthotopic BBN-induced mouse tumor, 1 mg per kg every other day for 2 weeks
Protocol: (§4) Human or mouse bladder samples were snap-frozen in liquid nitrogen, homogenized with a mortar and a pestle, and RNA was extracted using an RNeasy Plus Mini Kit (Qiagen).
as §1

[10] = test system: BBN-induced muscle-invasive urothelial carcinoma; conditions: Col1a2CreER;Smoflox/flox or Col1a2CreER;Gli2flox/flox mice, BBN 6 months
Protocol: (§9) For a gene deletion experiment, Col1a2^CreER (RRID: IMSR_JAX: 029235) mice were mated with the Smo^flox/flox (RRID: IMSR_JAX: 007926) or Gli2^flox/flox (RRID: IMSR_JAX: 004526) strains, thereby obtaining Col1a2^CreER; Smo^flox/flox or Col1a2^CreER;Gli2^flox/flox mice.
The mice were administered 8 mg of tamoxifen (TM; Sigma) per 30 g of body weight by oral gavage for three consecutive days. Male mice aged 8 to 10 weeks were used. […] In each experiment, the mice were randomly selected for a drug/TM or control-treated group. The experiments involving mice were performed under isoflurane anesthesia. All procedures were performed according to a protocol approved by the Institutional Animal Care and Use Committee at POSTECH (IACUC number: POSTECH-2017-0094).
(§10) 0.1% N-butyl-N-4-hydroxybutyl nitrosamine (BBN, TCI) was dissolved in drinking water, and the BBN-containing water was placed in a dark bottle, and provided ad libitum to mice for 4 to 6 months. The BBN-containing water was replaced twice a week. Bladders were collected and analyzed 4 to 6 months after BBN administration.

[11] = test system: T24
Protocol: (§5) Frozen human bladder tissue samples were obtained from the tissue bank of Seoul National University Hospital. For fresh bladder tumor samples, 0.5 to 1-cm^3 bladder tissue specimens were obtained from patients undergoing cystectomy or TURBT according to a protocol approved by the SNUH Institutional Review Board (IRB No.: 1607-135-777). Informed consent to patient information provision and publishing was obtained from the patients. The cancer tissues were evaluated before transport to POSTECH for additional analysis. For experiments for bladder cancer cell lines, J82 (RRID: CVCL_0359), T24 (RRID: CVCL_0554) and TCC (RRID: CVCL_1738) were used. All cell lines were authenticated by a STR profiling method, and tested negative for mycoplasma contamination.
as §1

[12] = test system: J82
Protocol: as §5, §1

[13] = test system: TCC-SUP
Protocol: as §5, §1

[14] = test system: J82 cells; conditions: J82 orthotopic xenograft, treated one month; vehicle: full-fledged muscle-invasive carcinoma
Protocol: as §2

[15] = test system: luminal markers (Upk1a, Upk1b, Upk2, Upk3a, Upk3b, Krt20, Krt18); conditions: tumor allografts; normalized to Krt5
Protocol: as §4, §1, §3

[16] = test system: BBN-induced tumors; conditions: TM three days, transplantation, treatment 1.5 months
Protocol: as §9
The mice were administered 8 mg of tamoxifen (TM; Sigma) per 30 g of body weight by oral gavage for three consecutive days. Male mice aged 8 to 10 weeks were used. […] The dosing duration is described in the brief description of the drawings. In each experiment, the mice were randomly selected for a drug/TM or control-treated group. The experiments involving mice were performed under isoflurane anesthesia.
Bladder tumors were dissociated into single cells as described above. The cells were resuspended in 80 ml DMEM containing 50% Matrigel (BD Bioscience), and then submucosally injected into the anterior aspect of the bladder dome using a 29-gauge insulin syringe. An abdominal incision and skin were closed with a 4-0 nylon suture, and the surgical site was disinfected with alcohol. Bladder tumor organoids were selected, and resuspended in a 50% organoid medium and 50%

[17] = test system: BBN-induced invasive carcinoma; conditions: BBN 4 months, then treatment 2 months with continued BBN; found in vehicle control
Protocol: as §7, §10, §8

Nc1ncn([C@@H]2O[C@H](CO)[C@@H](O)[C@H]2O)c(=O)n1 [5′-azacitidine]
basal marker CDH3 expression, decrease compared with the vehicle [1]: 6 fold
basal marker KRT6A expression, decrease compared with the vehicle [1]: 9 fold
luminal marker FOXA1 expression, increase compared with the vehicle [1]: 1.8 fold
luminal marker GATA3 expression, increase compared with the vehicle [1]: 1.8 fold
methylation level in the CpG shore upstream of the CpG island of the Shh promoter region [2]: 43%
Shh gene expression level, increase compared to the vehicle control [3]: 9 fold
basal marker expression (GSEA) [4]: relatively low level
luminal signature (GSEA) [4]: strong luminal signature
methylation level in the CpG shore upstream of the CpG island of the Shh promoter region [5]: 36%
expression of luminal subtype marker Ck18 (immunostaining) [6]: increased
tumor lesions compared with untreated group (H&E) [7]: smaller tumor lesions
growth of bladder tumors ([8]; immunocompetent wild-type mice): completely inhibits
invasive carcinoma (H&E) ([8]; treated for 1.5 months, appeared in vehicle control): no invasive carcinoma appeared
Shh gene expression level, increase compared to the vehicle control [9]: 11 fold
anticancer initiation effect in TM-treated group (stromal Hh response removed) [10]: reversed
SHH expression, increase compared with untreated control [11]: 7 fold
SHH expression, increase compared with untreated control [12]: 6 fold
SHH expression, increase compared with untreated control [13]: 3 fold
cancer lesions in the bladder (H&E) [14]: much smaller cancer lesions
Krt18 expression, increase compared with the vehicle control [15]: 2 fold
Krt20 expression, increase compared with the vehicle control [15]: 1.5 fold
Upk1a expression, increase compared with the vehicle control [15]: 3 fold
Upk1b expression, increase compared with the vehicle control [15]: 2 fold
Upk2 expression, increase compared with the vehicle control [15]: 2 fold
Upk3a expression, increase compared with the vehicle control [15]: 2.5 fold
Upk3b expression, increase compared with the vehicle control [15]: 2 fold
anticancer propagation effect in strains with genetically inhibited stromal Hh signaling pathway [16]: disappeared
invasive carcinoma (H&E) [17]: not found
